Results: the Kinase Knowledgebase extract (Sharma et al. 2016)
Converted amounts (≈) assume the structure as drawn. “And” between values parts separate entries of the source, which are not always exact repeats. Identical values can stand only once.

Columns and labels:
[1] = biological target: EGFR (human) (UniProt P00533); conditions: mda435
[2] = biological target: EGFR (human) (UniProt P00533); conditions: a431
[3] = biological target: EGFR (human) (UniProt P00533); conditions: skbr3
[4] = biological target: EGFR (human) (UniProt P00533); conditions: a2780ddp
[5] = biological target: EGFR (human) (UniProt P00533); conditions: sw 620
[6] = biological target: EGFR (human) (UniProt P00533); conditions: lox
[7] = biological target: EGFR (human) (UniProt P00533); conditions: mcf-7
[8] = biological target: EGFR (human) (UniProt P00533); conditions: a2780s
[9] = biological target: EGFR (human) (UniProt P00533); conditions: 3t3
[10] = biological target: EGFR (human) (UniProt P00533); conditions: her2/3t3
[11] = biological target: EGFR (UniProt P00533)
EGFR, sequence (P00533 whole entry, looked up): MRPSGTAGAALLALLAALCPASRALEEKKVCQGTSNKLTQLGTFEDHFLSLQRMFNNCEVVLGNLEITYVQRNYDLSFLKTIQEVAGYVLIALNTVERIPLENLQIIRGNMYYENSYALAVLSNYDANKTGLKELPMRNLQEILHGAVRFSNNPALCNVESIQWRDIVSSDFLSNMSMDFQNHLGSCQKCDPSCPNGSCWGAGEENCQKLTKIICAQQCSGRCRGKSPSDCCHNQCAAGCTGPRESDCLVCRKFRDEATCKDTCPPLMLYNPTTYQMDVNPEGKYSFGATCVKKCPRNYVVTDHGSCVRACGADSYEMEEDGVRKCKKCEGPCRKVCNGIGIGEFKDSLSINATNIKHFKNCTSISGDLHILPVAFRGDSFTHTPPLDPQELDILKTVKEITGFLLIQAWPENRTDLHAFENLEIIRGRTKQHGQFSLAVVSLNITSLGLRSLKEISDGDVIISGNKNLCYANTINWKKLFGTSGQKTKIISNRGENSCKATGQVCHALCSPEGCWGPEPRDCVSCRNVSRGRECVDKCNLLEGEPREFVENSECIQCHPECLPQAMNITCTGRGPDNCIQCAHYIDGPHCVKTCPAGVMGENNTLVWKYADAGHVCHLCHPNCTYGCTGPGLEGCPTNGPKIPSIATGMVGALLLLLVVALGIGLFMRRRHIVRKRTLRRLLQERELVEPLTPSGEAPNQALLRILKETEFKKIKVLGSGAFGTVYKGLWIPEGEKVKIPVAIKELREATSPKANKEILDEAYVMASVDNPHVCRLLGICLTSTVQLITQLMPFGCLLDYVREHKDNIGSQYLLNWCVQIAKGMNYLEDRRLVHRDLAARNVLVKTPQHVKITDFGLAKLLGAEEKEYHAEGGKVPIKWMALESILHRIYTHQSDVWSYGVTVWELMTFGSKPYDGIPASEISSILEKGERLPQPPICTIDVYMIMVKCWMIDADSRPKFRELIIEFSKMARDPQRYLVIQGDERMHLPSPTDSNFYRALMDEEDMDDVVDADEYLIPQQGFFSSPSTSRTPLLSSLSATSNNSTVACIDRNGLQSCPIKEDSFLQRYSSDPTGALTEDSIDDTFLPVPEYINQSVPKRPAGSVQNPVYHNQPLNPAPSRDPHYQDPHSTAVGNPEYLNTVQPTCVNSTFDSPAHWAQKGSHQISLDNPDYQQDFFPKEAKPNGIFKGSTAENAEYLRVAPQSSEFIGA

EGFR (human), sequence (P00533 whole entry, looked up): as above

IC50 [1] | IC50 [2] | IC50 [3] | IC50 [4] | IC50 [5] | IC50 [6] | IC50 [7] | IC50 [8] | IC50 [9] | IC50 [10] | IC50 [11] | IC100 [2] | SMILES
0.88 µg/mL (≈ 2.17 µM) | 0.23 µg/mL (≈ 0.566 µM) | 0.12 µg/mL (≈ 0.295 µM) | 0.13 µg/mL (≈ 0.32 µM) | 0.17 µg/mL (≈ 0.418 µM) | 0.07 µg/mL (≈ 0.172 µM) | 980 nM and 400 nM |  |  |  |  |  | CC#CC(=O)Nc1cc2c(Nc3cccc(Br)c3)c(C#N)cnc2cn1
2.4 µg/mL (≈ 5.21 µM) | 0.4 µg/mL (≈ 0.869 µM) | 2.9 µg/mL (≈ 6.3 µM) | 1.8 µg/mL (≈ 3.91 µM) | 4.1 µg/mL (≈ 8.91 µM) |  |  | 1 µg/mL (≈ 2.17 µM) |  |  |  |  | COc1ccc(CNc2cc3c(Nc4cccc(Br)c4)c(C#N)cnc3cn2)cc1
> 5 µg/mL | 2.23 µg/mL (≈ 5.77 µM) | 4.63 µg/mL (≈ 12 µM) |  | > 5 µg/mL |  |  |  | 4.48 µg/mL (≈ 11.6 µM) | > 5 µg/mL |  |  | CN(C)CCOc1cc2c(Nc3ccc(F)c(Cl)c3)c(C#N)cnc2cn1
47 µg/mL | 59 µg/mL | 41 µg/mL | 52 µg/mL | 42 µg/mL | 56 µg/mL |  | 31 µg/mL |  |  |  |  | CN(C)c1cc[n+](-c2cc3c(Nc4cccc(Br)c4)c(C#N)cnc3cn2)cc1
4.2 µg/mL (≈ 9.97 µM) | 3.06 µg/mL (≈ 7.25 µM) | 3.59 µg/mL (≈ 8.52 µM) | 2.97 µg/mL (≈ 7.05 µM) | 4.72 µg/mL (≈ 11.2 µM) |  |  | 2.34 µg/mL (≈ 5.56 µM) |  |  |  |  | C[Si](C)(C)C#Cc1cc2c(Nc3cccc(Br)c3)c(C#N)cnc2cn1
0.464 µg/mL (≈ 1.03 µM) | 0.088 µg/mL (≈ 0.195 µM) | 0.0357 µg/mL (≈ 0.079 µM) |  | 0.356 µg/mL (≈ 0.789 µM) |  |  |  | 0.272 µg/mL and 0.373 µg/mL | 0.106 µg/mL and 0.0436 µg/mL |  |  | CN(C)C/C=C/C(=O)Nc1cc2c(Nc3cccc(Br)c3)c(C#N)cnc2cn1
 |  |  |  |  |  |  |  |  |  | > 100 nM |  | CC#CC(=O)Nc1cnc2ncc(C#N)c(Nc3ccc(F)c(Cl)c3)c2c1
> 5 µg/mL | 3.92 µg/mL (≈ 11.4 µM) | > 5 µg/mL | > 5 µg/mL | > 5 µg/mL |  |  | 3.33 µg/mL (≈ 9.7 µM) |  |  |  |  | N#Cc1cnc2cnc(F)cc2c1Nc1cccc(Br)c1
> 5 µg/mL | 0.4 µg/mL (≈ 1.18 µM) | 4.1 µg/mL (≈ 12.1 µM) | 3.1 µg/mL (≈ 9.11 µM) | > 5 µg/mL |  |  | 3.5 µg/mL (≈ 10.3 µM) |  |  |  |  | N#Cc1cnc2cnc(N)cc2c1Nc1cccc(Br)c1
49 µg/mL (≈ 108 µM) | 0.5 µg/mL (≈ 1.1 µM) |  |  | 41 µg/mL (≈ 90.4 µM) | 57 µg/mL (≈ 126 µM) |  | 0.5 µg/mL (≈ 1.1 µM) |  |  |  |  | N#Cc1cnc2cnc(NCCN3CCOCC3)cc2c1Nc1cccc(Br)c1
0.98 µg/mL (≈ 2.77 µM) | 0.31 µg/mL and 0.209 µg/mL | 1.88 µg/mL (≈ 5.3 µM) |  | 4.62 µg/mL (≈ 13 µM) | 3.6 µg/mL (≈ 10.2 µM) | 10900 nM and 3870 nM |  |  |  |  | 0.59 µM | CNc1cc2c(Nc3cccc(Br)c3)c(C#N)cnc2cn1
> 5 µg/mL | 2.76 µg/mL (≈ 6.12 µM) | 4.83 µg/mL (≈ 10.7 µM) | 4 µg/mL (≈ 8.87 µM) | > 5 µg/mL |  |  | 1.77 µg/mL (≈ 3.92 µM) |  |  | > 800 nM |  | CN(C)C/C=C/C(=O)Nc1cnc2ncc(C#N)c(Nc3cccc(Br)c3)c2c1
